Legend:
[1] = tested on: human dopaminergic neurons (iCell DopaNeurons); test: MPP+-induced neurotoxicity: neurite outgrowth (neurite length, branch points) of iCell DopaNeurons, Incucyte; assay type: cell-based; details: MPP+ 100 μM; for Neurite Length Data, Mean ± S.D.: Table 5.1 (FIG. 5A); for Neurite Length Data, Mean ± S.D. / Neurite Branching Data, Mean ± S.D.: conditions 17-28, AUC of kinetic data; for Neurite Branching Data, Mean ± S.D.: Table 5.2 (FIG. 5B); for Neurite length, plate 2, Mean ± S.D.: Table 6.2 (FIG. 7A); for effects on neurite outgrowth: vs MPP+ alone
From the text: (§1) We conducted an in vitro study of the drugs in Table 1 to evaluate the neuroprotective effects of 44 conditions of treatment (Table 2, experiments 1-41; 51-53) against MPP+-induced neurodegeneration toxicity on human dopaminergic neurons (iCell® DopaNeurons: iPS cell-derived human midbrain floorplate dopaminergic neurons). Further combinations (Table 2, experiments 42-50 and Table 3) are also disclosed.
iCell DOPA neurons are neural floor plate-derived midbrain dopaminergic neurons generated from human induced pluripotent stem cells (iPSCs). Dopaminergic neurons, specifically those located in the floor plate-derived midbrain are implicated in neurological disorders such as Parkinson's disease, MSA and DLBD among others. Thus iCell DopaNeurons provide a highly relevant in vitro model to investigate these types of pathologies (42, 43). The iCellDopa neurons were supplied from FUJIFILM Cellular Dynamics.
(§2) Three different measurements were made in the experiments. 1. Neurite length in mm is a measure of increase in dendrite length of neurons. […] 2. neurite branching is measure of dendrite branching. […] 3. Cytolysis of the cells is a measure of cell death. […] Experimental conditions were measured relative to the results of healthy cells in the studies.
(§3) Procedure. iCell DOPA neurons were thawed and cultured following the provider's instructions in Brainphys medium+provided supplements+1% N2 supplement (Stemcell Technologies)+penicillin/streptomycin+Laminin. They were plated at 20000 cells per well of a 384 well plate (pre-coated with poly-D-lysine and Laminin) in 70 μL of growth medium. Cells were incubated at 37° C./5% CO2 in a humidified cell culture incubator. Half of the culture medium was changed twice a week.
(§4) MPP+-induced neurotoxicity: 24 hours after neuronal plating, half of the medium was removed and the test compounds were applied with MPP+ treatment, both concentrated at 4×, were added to the wells. For each condition, six aliquots were added, corresponding to columns A-F in Table 2. Except for the NT/NT row, in each row, either the compound indicated dissolved in its vehicle noted in Table 1 was added, or only a vehicle was added as indicated. Column F is an indicator of whether MPP+ was added. If not, only the medium was added.
(§5) For the evaluation of conditions 1-28, Neurite outgrowth was followed for subsequent 48 hours using an Incucyte Zoom platform with one phase contrast image every 4 hours, using a 20× objective. After 48 hours, the medium containing test compounds and MPP+ was removed and replaced by fresh medium containing a fluorescent cytolysis marker (red fluorescence) and a live cell marker (green fluorescence). For the evaluation of conditions 29-53, Neurite outgrowth was followed similarly for subsequent 72 hours after MPP+ was added.
Each condition 1-41 and 51-53 was repeated in 8 wells of a 384 well plate, that is, each test condition studied in Table 2 was repeated eight times. NT/NT were cells in the standard medium only. Control/NT are the cells in the vehicle (as described above), with and without MPP+.
Assay endpoints and data analysis. Phase contrast images were analyzed at each time point to determine the neurite length and number of branch points per mm^2. Kinetic data was plotted and kinetics were normalized by subtracting the value of the first data point (at time of treatment), allowing to measure changes in neurite outgrowth only from the onset of the treatment, starting at zero. Area Under Curve (AUC) of kinetic data was obtained and used for plotting compound's effects and perform statistical analyzes.
(§6) Statistical analysis. We used one-way ANOVA followed by Bonferroni's multiple comparisons test.

[2] = tested on: human dopaminergic neurons (iCell DopaNeurons); test: MPP+-induced neurotoxicity: cytolysis of iCell DopaNeurons; assay type: cell-based; details: MPP+ 100 μM, PCI 30 μM; for Cytolysis, %, Plate 2, Mean ± S.D.: Table 8.2 (FIG. 7C)
From the text: as §1, §2, §3, §4, §5
Data was normalized to control conditions as there is basal cytolysis in the cell culture after thawing.
Fluorescently immuno-stained cells were imaged on a high content imaging platform. Individual segmentation of cells was performed by image analysis of the MAP2 and NeuN staining. The number of neurons and the neurite length were measured. The percentage of cytolyzed cells was also calculated.
as §6

[3] = PD patients, small double-blind placebo controlled trial; cited from earlier work
[4] = tested on: IL-6; test: LPS/ATP-induced IL-6 secretion by human microglia cells (Luminex); assay type: cell-based
From the text: (§7) In addition to the studies discussed above assessing activity of combinations of drugs on MPP+-induced neurodegeneration toxicity on human dopaminergic neurons and measuring neuronal growth and neurite branching, we also assessed combinations of drugs in reducing lipopolysaccharide (LPS, from E. coli)-induced neuroinflammation.
(§8) Lipopolysaccharides are important outer membrane components of gram-negative bacteria such as E. coli and salmonella. They are large amphipathic glycoconjugates that typically consist of a lipid domain (hydrophobic) attached to a core oligosaccharide and a distal polysaccharide. LPS binds to Toll-like receptor 4 (TLR4) and activates microglia (51) which in turn increases secretion of pro-inflammatory cytokines such as interleukin-6 (IL-6), tumor necrosis factor-α (TNF-α), and CXCL1/GROα.
(§9) Microglia cells were obtained from an iCell® Microglia kit, 01279 (Catalogue N° R1131) from FUJIFILM Cellular Dynamics. We followed the manufacturer's protocol for activation of the microglial cells with LPS/ATP to subsequently measure the effect of the study drugs on pro-inflammatory cytokines IL-6, TNF-α and CXCL1/GROα.
(§10) All cell culture procedures were performed in aseptic conditions, under a laminar flow hood. Microglia were thawed and cultured following the provider's instructions. The microglia were plated at 50,000 cells per well of a Corning Primaria 96 well plate (Ref N° 353872) in 100 μL of growth medium. Cells were incubated at 37° C./5% CO2 in a humidified cell culture incubator.
(§11) Three days after cell plating, the test or reference substances (25 μL of solutions at 5×) were applied 1 hour before LPS and ATP stimulation.
(§12) One hour later, 12.5 μL of test or reference substances were added again at 2× concentrated followed by 12.5 μL of LPS at 12× concentration. Fifty microliters of ATP were introduced at 4× concentration, 5 h 30 min after incubation with LPS.
(§13) Six hours after LPS incubation, the supernatant of each well was collected and centrifugated at 1000 g for 10 minutes to remove the cells and debris.
(§14) Fifty microliters of supernatant from NT and LPS+ATP-treated wells were used to determine cytokine secretion (IL-6, TNF-α, CXCL1/GROα) by Luminex platform according to the provider's instructions. Samples were diluted prior to the assay to fit within the standard range if needed. Three wells were tested per each condition (Table 10). Cytokines levels in the supernatant were expressed in pg/mL. The data was analyzed using a One-Way ANOVA followed by Bonferroni test.

[5] = tested on: PrP; details: cell-free aggregation assays, chronically and acutely infected cell cultures; cited from earlier work
[6] = pre-treatment 50 mg/kg for 3 days; cited from earlier work
[7] = tested on: TNF-α; test: LPS/ATP-induced TNF-α secretion by human microglia cells (Luminex); assay type: cell-based; details: as compared with […] distilled water in presence of LPS and ATP
From the text: as §7, §8, §9, §10, §11, §12, §13, §14

[8] = tested on: CXCL1/GROα; test: LPS/ATP-induced CXCL1/GROα secretion by human microglia cells (Luminex); assay type: cell-based; details: as compared with […] distilled water in presence of LPS and ATP
From the text: as §7, §8, §9, §10, §11, §12, §13, §14

[9] = tested on: IL-1β; test: LPS/ATP-induced IL-1β in human microglia cells; assay type: cell-based; details: as compared with […] distilled water in presence of LPS and ATP

## Cc1c(O)c(=O)ccn1C [DFP, Deferiprone]
[1]
  Neurite Length Data, Mean ± S.D.: 874.5 ± 190.4 mm/mm^2
  Neurite Branching Data, Mean ± S.D.: 24282.5 ± 6612.9 per mm^2
  effects on neurite outgrowth: no significant effects
[1]; followed 72 hours, PCI 30 μM
  Neurite length, plate 2, Mean ± S.D.: 1303.0 ± 378.7 mm/mm^2
[1]; Table 7.2 (FIG. 7B), followed 72 hours, PCI 30 μM
  Neurite Branching Data, Plate 2, Mean ± S.D.: 51711.3 ± 15178.4 per mm^2
[2]
  Cytolysis, %, Plate 2, Mean ± S.D.: 71.91 ± 1.28%
[3]
  substantia nigra iron deposits (MRI) and motor scores of disease progression: showed improvement

## C[C@H](CCC(=O)NCCS(=O)(=O)O)[C@H]1CC[C@H]2[C@@H]3[C@@H](O)C[C@@H]4C[C@H](O)CC[C@]4(C)[C@H]3CC[C@]12C [TUDCA, tauroursodeoxycholic acid]
[1]; Table 6.1 (FIG. 6A), followed 72 hours, PCI 30 μM
  Neurite length data, plate 1, Mean: 1825.9 mm/mm^2
[1]; Table 7.1 (FIG. 6B), followed 72 hours, PCI 30 μM
  Neurite Branching Data, Plate 1, Mean ± S.D.: 58836.3 ± 9596.4 per mm^2
[1]; conditions 29-53, followed 72 hours (FIG. 6A, 7A)
  neurite length increased as compared with MPP+ alone: 43%
[1]; conditions 29-53, followed 72 hours (FIG. 6B, 7B)
  number of branches increased as compared with MPP+ alone: 60%
[2]; Table 8.1 (FIG. 6C)
  Cytolysis, %, Plate 1, Mean ± S.D.: 70.69 ± 2.02%
[4]; LPS and ATP, IL-6, TNF-α, GROα together (FIG. 8, 9, 10)
  anti-inflammatory effect on activated microglia, all three cytokines: Anti-inflammatory effects of the individual drugs were observed
[5]
  PrP conversion: substantially reduced PrP conversion
[6]
  neurodegeneration of the nigral dopaminergic neurons caused by MPTP: significantly reduced neurodegeneration

## Nc1c(Br)cc(Br)cc1CN[C@H]1CC[C@H](O)CC1 [AMB, Ambroxol]
[1]
  Neurite Length Data, Mean ± S.D.: 763.9 ± 209.8 mm/mm^2
  Neurite Branching Data, Mean ± S.D.: 20281.6 ± 8723.4 per mm^2
  effects on neurite outgrowth: no significant effects
[1]; followed 72 hours, PCI 30 μM
  Neurite length, plate 2, Mean ± S.D.: 1332.1 ± 174.8 mm/mm^2
[2]
  Cytolysis, %, Plate 2, Mean ± S.D.: 73.29 ± 2.23%

## CCOC(=O)C1=CCCC[C@H]1S(=O)(=O)Nc1ccc(F)cc1Cl [TAK-242]
[4]; as compared with […] distilled water in presence of LPS and ATP
  concentration of IL-6: significantly decreased
[7]
  concentration of TNF-α: significantly decreased
[8]
  concentration of GROα: significantly decreased
[9]
  concentration of IL-1β: significantly decreased

Reference: US20240058288A1, “DRUG COCKTAIL FOR TREATMENT OF PARKINSON'S DISEASE, LEWY BODY DISEASE AND MULTIPLE SYSTEM ATROPHY” (ALETA NEUROSCIENCE, LLC, priority 2021, published 2024)
